US20230330093A1, “APPLICATION OF NITROGEN-CONTAINING SATURATED HETEROCYCLIC COMPOUND” (SHANGHAI PHARMACEUTICALS HOLDING CO., LTD., priority 2020, published 2023)

Test system: cynomolgus monkeys
Experiment: 4-week safety study: serum biochemistry
Format: in vivo
Procedure: […] (1) Hematological and coagulation index examination were performed using a Bayer ADVIA2120 (Germany) and a Sysmex CA-1500 (Japan). (2) The serum biochemical examination was assessed using a HITACHI 7080 automated analyzer (Japan) and an Easylyte PLUS electrolyte analyzer (MEDICA, America). (3) The 24-h pooled urine of each animal was collected by a tray under each cage. Urinalysis was carried out using Uritest-300 (China). (4) The 24-h pooled faeces of each monkey were collected by a tray under each cage. Fecal occult blood was detected. (5) ACCESS 2 Chemiluminescence immunoassay was used for myocardial troponin (TropI, non-GLP) test.

`COC(=O)NCCCn1nc([C@@H](C)N(C(=O)[C@H]2CNCCO2)C2CC2)c2ccc(C)nc21` [compound of Formula I] showed a BUN (Female, 20 mg/kg, d0) of 6.1 ± 1.1 mmol/L, a CHOL (Female, 20 mg/kg, d0) of 3.0 ± 0.5 mmol/L and a CPK (Female, 20 mg/kg, d0) of 158.4 ± 63.5 U · L^−1. For the same compound, the CREA (Female, 20 mg/kg, d0) was 59 ± 4 µM, the K (Female, 20 mg/kg, d0) was 5.0 ± 0.3 mmol/L and the Na (Female, 20 mg/kg, d0) was 149.4 ± 3.5 mmol/L. For the same compound, the BUN (Female, 20 mg/kg, d14) was 5.4 ± 0.9 mmol/L, the CHOL (Female, 20 mg/kg, d14) was 2.8 ± 0.2 mmol/L and the CPK (Female, 20 mg/kg, d14) was 151.6 ± 45.2 U · L^−1. The CREA (Female, 20 mg/kg, d14) was 52.4 ± 3.8 µM, the K (Female, 20 mg/kg, d14) was 5.2 ± 0.2 mmol/L and the Na (Female, 20 mg/kg, d14) was 149.6 ± 1.7 mmol/L. For the same compound, the BUN (Female, 20 mg/kg, d26) was 6.3 ± 1.1 mmol/L, the CHOL (Female, 20 mg/kg, d26) was 2.7 ± 0.3 mmol/L and the CPK (Female, 20 mg/kg, d26) was 149.4 ± 58.7 U · L^−1. It also gave a CREA (Female, 20 mg/kg, d26) of 51.2 ± 3.6 µM, a K (Female, 20 mg/kg, d26) of 4.9 ± 0.5 mmol/L and a Na (Female, 20 mg/kg, d26) of 149.2 ± 4.3 mmol/L. It also gave a BUN (Female, 20 mg/kg, d 56) of 6.0 ± 0.6 mmol/L, a CHOL (Female, 20 mg/kg, d 56) of 3.0 ± 0.1 mmol/L and a CPK (Female, 20 mg/kg, d 56) of 129.0 ± 5.7 U · L^−1. For the same compound, the CREA (Female, 20 mg/kg, d 56) was 51.5 ± 4.9 µM, the K (Female, 20 mg/kg, d 56) was 5.0 ± 0.5 mmol/L and the Na (Female, 20 mg/kg, d 56) was 147.2 ± 4.2 mmol/L. For the same compound, the BUN (Female, 100 mg/kg, d0) was 5.9 ± 1.1 mmol/L, the CHOL (Female, 100 mg/kg, d0) was 3.8 ± 1.3 mmol/L and the CPK (Female, 100 mg/kg, d0) was 187.6 ± 75.0 U · L^−1. It also gave a CREA (Female, 100 mg/kg, d0) of 55.2 ± 4.7 µM, a K (Female, 100 mg/kg, d0) of 4.5 ± 0.4 mmol/L and a Na (Female, 100 mg/kg, d0) of 149.4 ± 1.9 mmol/L. It also gave a BUN (Female, 100 mg/kg, d14) of 6.4 ± 0.8 mmol/L, a CHOL (Female, 100 mg/kg, d14) of 2.9 ± 0.6 mmol/L and a CPK (Female, 100 mg/kg, d14) of 247.2 ± 89.5 U · L^−1. It also gave a CREA (Female, 100 mg/kg, d14) of 55.2 ± 3.8 µM, a K (Female, 100 mg/kg, d14) of 4.7 ± 0.5 mmol/L and a Na (Female, 100 mg/kg, d14) of 149.8 ± 3.7 mmol/L. The BUN (Female, 100 mg/kg, d26) was 6.4 ± 1.6 mmol/L, the CHOL (Female, 100 mg/kg, d26) was 3.1 ± 0.5 mmol/L and the CPK (Female, 100 mg/kg, d26) was 195.0 ± 96.8 U · L^−1. The CREA (Female, 100 mg/kg, d26) was 51.2 ± 3.6 µM, the K (Female, 100 mg/kg, d26) was 4.8 ± 0.6 mmol/L and the Na (Female, 100 mg/kg, d26) was 149.6 ± 3.8 mmol/L. For the same compound, the BUN (Female, 100 mg/kg, d 56) was 5.2 ± 0.2 mmol/L, the CHOL (Female, 100 mg/kg, d 56) was 3.6 ± 0.2 mmol/L and the CPK (Female, 100 mg/kg, d 56) was 112.0 ± 12.7 U · L^−1. It also gave a CREA (Female, 100 mg/kg, d 56) of 54.5 ± 4.9 µM, a K (Female, 100 mg/kg, d 56) of 4.2 ± 0.2 mmol/L and a Na (Female, 100 mg/kg, d 56) of 147.9 ± 1.3 mmol/L. The BUN (Female, 450 mg/kg, d0) was 6.1 ± 0.7 mmol/L, the CHOL (Female, 450 mg/kg, d0) was 3.3 ± 0.4 mmol/L and the CPK (Female, 450 mg/kg, d0) was 163.2 ± 56.2 U · L^−1. The CREA (Female, 450 mg/kg, d0) was 54.4 ± 7.1 µM, the K (Female, 450 mg/kg, d0) was 5.1 ± 0.5 mmol/L and the Na (Female, 450 mg/kg, d0) was 150.1 ± 2.2 mmol/L. It also gave a BUN (Female, 450 mg/kg, d14) of 14.3 ± 11.8 mmol/L, a CHOL (Female, 450 mg/kg, d14) of 2.4 ± 0.9 mmol/L and a CPK (Female, 450 mg/kg, d14) of 815.2 ± 1316.0 U · L^−1. The CREA (Female, 450 mg/kg, d14) was 162 ± 204 µM, the K (Female, 450 mg/kg, d14) was 5.5 ± 0.2 mmol/L and the Na (Female, 450 mg/kg, d14) was 144.6 ± 3.5 mmol/L. The BUN (Female, 450 mg/kg, d26) was 9.7 ± 1.0 mmol/L, the CHOL (Female, 450 mg/kg, d26) was 2.0 ± 0.7 mmol/L and the CPK (Female, 450 mg/kg, d26) was 328.5 ± 259.1 U · L^−1. The CREA (Female, 450 mg/kg, d26) was 64.3 ± 7.1 µM, the K (Female, 450 mg/kg, d26) was 5.3 ± 0.4 mmol/L and the Na (Female, 450 mg/kg, d26) was 145.0 ± 2.6 mmol/L. The BUN (Female, 450 mg/kg, d 56) was 5.6 ± 0.6 mmol/L, the CHOL (Female, 450 mg/kg, d 56) was 3.1 ± 0.3 mmol/L and the CPK (Female, 450 mg/kg, d 56) was 290.0 ± 176.8 U · L^−1. For the same compound, the CREA (Female, 450 mg/kg, d 56) was 57 ± 2.8 µM, the K (Female, 450 mg/kg, d 56) was 4.8 ± 0.2 mmol/L and the Na (Female, 450 mg/kg, d 56) was 145.7 ± 0.9 mmol/L. The BUN (Male, 20 mg/kg, d0) was 5.1 ± 0.9 mmol/L, the CHOL (Male, 20 mg/kg, d0) was 2.9 ± 0.5 mmol/L and the CPK (Male, 20 mg/kg, d0) was 156.6 ± 76.3 U · L^−1. The CREA (Male, 20 mg/kg, d0) was 64.2 ± 7.2 µM, the K (Male, 20 mg/kg, d0) was 5.1 ± 0.3 mmol/L and the Na (Male, 20 mg/kg, d0) was 148.7 ± 2.0 mmol/L. It also gave a BUN (Male, 20 mg/kg, d14) of 4.8 ± 0.5 mmol/L, a CHOL (Male, 20 mg/kg, d14) of 2.6 ± 0.4 mmol/L and a CPK (Male, 20 mg/kg, d14) of 128.2 ± 50.8 U · L^−1. It also gave a CREA (Male, 20 mg/kg, d14) of 65 ± 4.3 µM, a K (Male, 20 mg/kg, d14) of 4.6 ± 0.3 mmol/L and a Na (Male, 20 mg/kg, d14) of 148.7 ± 1.6 mmol/L. For the same compound, the BUN (Male, 20 mg/kg, d26) was 5.6 ± 0.3 mmol/L, the CHOL (Male, 20 mg/kg, d26) was 2.7 ± 0.5 mmol/L and the CPK (Male, 20 mg/kg, d26) was 154.4 ± 21.5 U · L^−1. It also gave a CREA (Male, 20 mg/kg, d26) of 64 ± 5.5 µM, a K (Male, 20 mg/kg, d26) of 5.4 ± 0.9 mmol/L and a Na (Male, 20 mg/kg, d26) of 147.9 ± 1.9 mmol/L. The BUN (Male, 20 mg/kg, d 56) was 5.2 ± 0.4 mmol/L, the CHOL (Male, 20 mg/kg, d 56) was 2.6 ± 0.1 mmol/L and the CPK (Male, 20 mg/kg, d 56) was 161.0 ± 87.7 U · L^−1. It also gave a CREA (Male, 20 mg/kg, d 56) of 64 ± 5.7 µM, a K (Male, 20 mg/kg, d 56) of 5.3 ± 1.1 mmol/L and a Na (Male, 20 mg/kg, d 56) of 144.6 ± 1.6 mmol/L. For the same compound, the BUN (Male, 100 mg/kg, d0) was 5.7 ± 0.5 mmol/L, the CHOL (Male, 100 mg/kg, d0) was 3.6 ± 0.4 mmol/L and the CPK (Male, 100 mg/kg, d0) was 161.4 ± 12.3 U · L^−1. The CREA (Male, 100 mg/kg, d0) was 66.6 ± 8.6 µM, the K (Male, 100 mg/kg, d0) was 4.8 ± 0.4 mmol/L and the Na (Male, 100 mg/kg, d0) was 149.1 ± 2.9 mmol/L. For the same compound, the BUN (Male, 100 mg/kg, d14) was 6.1 ± 1.5 mmol/L, the CHOL (Male, 100 mg/kg, d14) was 3.0 ± 0.6 mmol/L and the CPK (Male, 100 mg/kg, d14) was 213.4 ± 67.1 U · L^−1. For the same compound, the CREA (Male, 100 mg/kg, d14) was 63 ± 4.1 µM, the K (Male, 100 mg/kg, d14) was 4.8 ± 0.4 mmol/L and the Na (Male, 100 mg/kg, d14) was 148.3 ± 2.5 mmol/L. It also gave a BUN (Male, 100 mg/kg, d26) of 5.9 ± 1.0 mmol/L, a CHOL (Male, 100 mg/kg, d26) of 2.8 ± 0.3 mmol/L and a CPK (Male, 100 mg/kg, d26) of 179.8 ± 42.1 U · L^−1. For the same compound, the CREA (Male, 100 mg/kg, d26) was 63 ± 8.5 µM, the K (Male, 100 mg/kg, d26) was 5.2 ± 0.2 mmol/L and the Na (Male, 100 mg/kg, d26) was 147.1 ± 2.4 mmol/L. The BUN (Male, 100 mg/kg, d 56) was 5.7 ± 1.5 mmol/L, the CHOL (Male, 100 mg/kg, d 56) was 2.8 ± 0.6 mmol/L and the CPK (Male, 100 mg/kg, d 56) was 109.0 ± 9.9 U · L^−1. For the same compound, the CREA (Male, 100 mg/kg, d 56) was 58.5 ± 3.5 µM, the K (Male, 100 mg/kg, d 56) was 4.2 ± 0.0 mmol/L and the Na (Male, 100 mg/kg, d 56) was 146.5 ± 0.7 mmol/L. It also gave a BUN (Male, 450 mg/kg, d0) of 5.3 ± 0.6 mmol/L, a CHOL (Male, 450 mg/kg, d0) of 3.4 ± 0.5 mmol/L and a CPK (Male, 450 mg/kg, d0) of 140.4 ± 44.6 U · L^−1. The CREA (Male, 450 mg/kg, d0) was 68.6 ± 5.1 µM, the K (Male, 450 mg/kg, d0) was 5.2 ± 0.8 mmol/L and the Na (Male, 450 mg/kg, d0) was 148.4 ± 2.5 mmol/L. It also gave a BUN (Male, 450 mg/kg, d14) of 11.3 ± 6.7 mmol/L, a CHOL (Male, 450 mg/kg, d14) of 1.8 ± 0.3 mmol/L and a CPK (Male, 450 mg/kg, d14) of 290.2 ± 120.0 U · L^−1. It also gave a CREA (Male, 450 mg/kg, d14) of 116 ± 74.4 µM, a K (Male, 450 mg/kg, d14) of 5.0 ± 0.2 mmol/L and a Na (Male, 450 mg/kg, d14) of 146.4 ± 3.3 mmol/L. The BUN (Male, 450 mg/kg, d26) was 10.4 ± 3.1 mmol/L, the CHOL (Male, 450 mg/kg, d26) was 1.7 ± 0.3 mmol/L and the CPK (Male, 450 mg/kg, d26) was 133.6 ± 44.6 U · L^−1. For the same compound, the CREA (Male, 450 mg/kg, d26) was 79 ± 2.8 µM, the K (Male, 450 mg/kg, d26) was 5.2 ± 0.2 mmol/L and the Na (Male, 450 mg/kg, d26) was 144.3 ± 2.2 mmol/L. The BUN (Male, 450 mg/kg, d 56) was 5.1 ± 0.0 mmol/L, the CHOL (Male, 450 mg/kg, d 56) was 2.8 ± 0.3 mmol/L and the CPK (Male, 450 mg/kg, d 56) was 99.5 ± 7.8 U · L^−1. The CREA (Male, 450 mg/kg, d 56) was 66.5 ± 3.5 µM, the K (Male, 450 mg/kg, d 56) was 4.8 ± 0.8 mmol/L and the Na (Male, 450 mg/kg, d 56) was 145.3 ± 1.1 mmol/L. For the same compound, the CREA (high-dose female that died early on d23, d14 data) was 526 µM, the CHOL (high-dose males) was “significantly decreased” and the “Serum Na level” value (high-dose males, d26, statistically significant) was “decreased slightly”. For the same compound, the BUN (high-dose, both sexes) was “significantly increased”, the CPK (high-dose, both sexes) was “significantly increased” and the CREA (high-dose, both sexes) was “significantly increased”.
